Assay results taken from publication PMC7305236, “The atypical chemokine receptor ACKR3/CXCR7 is a broad-spectrum scavenger for opioid peptides” (Nature Communications, 2020).
Like-named read-outs stand apart in the source and are kept apart here.

Tests used:
Set-up in all cases: dose or concentration left out as unconfirmed
CXCR5 = target: T1, CXCR5 (Homo sapiens, UniProt P32302); test: Figure S2a opioid peptide screen on chemokine receptors; assay type: cell-based
T1 construct: expressed in transfected cells
T1 sequence (P32302 1-372): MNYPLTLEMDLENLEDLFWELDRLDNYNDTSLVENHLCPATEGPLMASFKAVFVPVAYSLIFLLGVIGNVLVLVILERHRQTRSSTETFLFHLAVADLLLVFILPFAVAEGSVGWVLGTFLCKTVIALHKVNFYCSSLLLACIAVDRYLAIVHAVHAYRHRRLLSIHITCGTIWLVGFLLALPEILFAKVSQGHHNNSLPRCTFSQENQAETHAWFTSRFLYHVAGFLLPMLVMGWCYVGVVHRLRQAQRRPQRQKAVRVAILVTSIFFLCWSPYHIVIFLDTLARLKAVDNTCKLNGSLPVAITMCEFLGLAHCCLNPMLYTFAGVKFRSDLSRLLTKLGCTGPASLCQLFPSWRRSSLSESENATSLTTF

CXCR2 = target: T2, CXCR2 (Homo sapiens, UniProt P25025); test: as above; assay type: cell-based
T2 construct: expressed in transfected cells
T2 sequence (P25025 1-360): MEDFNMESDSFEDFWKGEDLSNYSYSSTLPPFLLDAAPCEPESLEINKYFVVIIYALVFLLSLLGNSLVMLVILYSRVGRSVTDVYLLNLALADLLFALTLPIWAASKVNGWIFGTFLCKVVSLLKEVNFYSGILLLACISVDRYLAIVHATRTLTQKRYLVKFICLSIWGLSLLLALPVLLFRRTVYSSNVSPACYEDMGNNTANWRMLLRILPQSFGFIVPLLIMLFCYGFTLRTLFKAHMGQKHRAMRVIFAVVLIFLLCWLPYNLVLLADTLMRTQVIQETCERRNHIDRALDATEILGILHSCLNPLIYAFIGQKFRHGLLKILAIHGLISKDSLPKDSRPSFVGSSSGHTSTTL

ACKR3 = ACKR3 (Homo sapiens, UniProt P25106); test: cell-based; settings: read-out: ACKR3 activity, ctrl+ = 100, Figure S2a
CCR5 = target: T3, CCR5 (Homo sapiens, UniProt P51681); test: Figure S2a opioid peptide screen on chemokine receptors; assay type: cell-based
T3 construct: expressed in transfected cells

CXCR6 = target: T4, CXCR6 (Homo sapiens, UniProt O00574); test: as above; assay type: cell-based
T4 construct: expressed in transfected cells

CXCR3A = target: T5, CXCR3A (Homo sapiens, UniProt P49682); test: as above; assay type: cell-based
T5 construct: expressed in transfected cells; host or cells: U87 cells
T5 sequence (P49682 1-368): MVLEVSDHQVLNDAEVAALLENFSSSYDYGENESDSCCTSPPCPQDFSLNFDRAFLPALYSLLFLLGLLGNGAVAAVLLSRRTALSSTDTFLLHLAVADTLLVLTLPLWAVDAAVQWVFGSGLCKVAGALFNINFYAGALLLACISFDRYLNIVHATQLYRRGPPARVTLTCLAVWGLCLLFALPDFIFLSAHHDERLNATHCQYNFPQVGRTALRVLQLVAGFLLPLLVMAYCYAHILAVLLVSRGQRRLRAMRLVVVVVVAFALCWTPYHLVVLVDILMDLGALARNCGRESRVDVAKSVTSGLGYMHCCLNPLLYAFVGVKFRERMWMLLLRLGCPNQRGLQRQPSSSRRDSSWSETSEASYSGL

CCR9 = target: T6, CCR9 (Homo sapiens, UniProt P51686); test: as above; assay type: cell-based
T6 construct: expressed in transfected cells
T6 sequence (P51686 1-369): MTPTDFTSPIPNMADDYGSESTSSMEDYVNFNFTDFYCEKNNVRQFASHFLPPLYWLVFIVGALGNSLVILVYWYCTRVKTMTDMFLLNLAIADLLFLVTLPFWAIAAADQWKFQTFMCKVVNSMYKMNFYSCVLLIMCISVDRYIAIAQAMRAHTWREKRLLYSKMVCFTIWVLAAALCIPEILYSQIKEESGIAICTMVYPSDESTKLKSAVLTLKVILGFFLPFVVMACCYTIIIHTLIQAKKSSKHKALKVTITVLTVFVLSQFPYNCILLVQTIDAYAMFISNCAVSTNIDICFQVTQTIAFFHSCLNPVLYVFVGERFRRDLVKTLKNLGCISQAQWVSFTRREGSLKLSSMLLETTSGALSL

CXCR4 = target: T7, CXCR4 (Homo sapiens, UniProt P61073); test: cell-based; settings: Figure S2a, read-out: CXCR4 activity, ctrl+ = 100
T7 construct: expressed in transfected cells; host or cells: U87, transient cotransfection of pNBe vectors

ACKR4 = target: T8, ACKR4 (Homo sapiens, UniProt Q9NPB9); test: Figure S2a opioid peptide screen on chemokine receptors; settings: read-out: ACKR4 activity, ctrl+ = 100, Figure S2a
T8 sequence (Q9NPB9 1-350): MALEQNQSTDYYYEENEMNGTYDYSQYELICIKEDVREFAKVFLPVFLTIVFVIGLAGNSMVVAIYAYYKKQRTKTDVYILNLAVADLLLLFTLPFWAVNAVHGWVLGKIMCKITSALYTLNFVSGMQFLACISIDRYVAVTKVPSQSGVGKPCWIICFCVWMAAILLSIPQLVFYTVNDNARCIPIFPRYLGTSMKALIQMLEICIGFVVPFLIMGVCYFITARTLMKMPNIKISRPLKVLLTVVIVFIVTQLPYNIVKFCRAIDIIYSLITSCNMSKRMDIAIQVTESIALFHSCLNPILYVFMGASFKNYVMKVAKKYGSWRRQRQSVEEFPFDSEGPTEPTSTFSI

[1] = replicate 1, read-out: CXCR5 activity, ctrl+ = 100
[2] = replicate 2, read-out: CXCR5 activity, ctrl+ = 100
[3] = replicate 3, read-out: CXCR5 activity, ctrl+ = 100
[4] = replicate 1, read-out: CXCR2 activity, ctrl+ = 100
[5] = replicate 2, read-out: CXCR2 activity, ctrl+ = 100
[6] = replicate 3, read-out: CXCR2 activity, ctrl+ = 100
[7] = replicate 1, read-out: CCR5 activity, ctrl+ = 100
[8] = replicate 2, read-out: CCR5 activity, ctrl+ = 100
[9] = replicate 3, read-out: CCR5 activity, ctrl+ = 100
[10] = replicate 1, read-out: CXCR6 activity, ctrl+ = 100
[11] = replicate 2, read-out: CXCR6 activity, ctrl+ = 100
[12] = replicate 3, read-out: CXCR6 activity, ctrl+ = 100
[13] = replicate 1, read-out: CXCR3A activity, ctrl+ = 100
[14] = replicate 2, read-out: CXCR3A activity, ctrl+ = 100
[15] = replicate 3, read-out: CXCR3A activity, ctrl+ = 100
[16] = replicate 1, read-out: CCR9 activity, ctrl+ = 100
[17] = replicate 2, read-out: CCR9 activity, ctrl+ = 100
[18] = replicate 3, read-out: CCR9 activity, ctrl+ = 100

T4 sequence (O00574 whole entry): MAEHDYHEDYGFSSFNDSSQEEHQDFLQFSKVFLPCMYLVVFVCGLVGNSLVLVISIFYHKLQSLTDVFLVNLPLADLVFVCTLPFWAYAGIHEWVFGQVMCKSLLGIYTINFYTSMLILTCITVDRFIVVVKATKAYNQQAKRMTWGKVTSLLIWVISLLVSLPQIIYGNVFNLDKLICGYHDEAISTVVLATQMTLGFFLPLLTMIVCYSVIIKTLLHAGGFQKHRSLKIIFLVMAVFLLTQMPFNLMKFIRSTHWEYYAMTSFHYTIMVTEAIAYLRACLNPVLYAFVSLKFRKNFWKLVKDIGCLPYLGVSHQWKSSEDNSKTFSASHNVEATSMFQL
Chain of ACKR3 (P25106 whole entry): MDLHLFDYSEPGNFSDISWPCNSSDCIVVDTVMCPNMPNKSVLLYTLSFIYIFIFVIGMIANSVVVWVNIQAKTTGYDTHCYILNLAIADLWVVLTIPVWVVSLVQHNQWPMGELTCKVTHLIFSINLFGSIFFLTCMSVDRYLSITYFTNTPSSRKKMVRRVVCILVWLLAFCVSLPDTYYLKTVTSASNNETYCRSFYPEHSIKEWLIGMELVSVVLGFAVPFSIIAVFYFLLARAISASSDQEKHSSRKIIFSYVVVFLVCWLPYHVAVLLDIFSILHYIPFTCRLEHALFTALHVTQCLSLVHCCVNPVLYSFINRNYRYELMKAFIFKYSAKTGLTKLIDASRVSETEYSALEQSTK
T3 sequence (P51681 whole entry): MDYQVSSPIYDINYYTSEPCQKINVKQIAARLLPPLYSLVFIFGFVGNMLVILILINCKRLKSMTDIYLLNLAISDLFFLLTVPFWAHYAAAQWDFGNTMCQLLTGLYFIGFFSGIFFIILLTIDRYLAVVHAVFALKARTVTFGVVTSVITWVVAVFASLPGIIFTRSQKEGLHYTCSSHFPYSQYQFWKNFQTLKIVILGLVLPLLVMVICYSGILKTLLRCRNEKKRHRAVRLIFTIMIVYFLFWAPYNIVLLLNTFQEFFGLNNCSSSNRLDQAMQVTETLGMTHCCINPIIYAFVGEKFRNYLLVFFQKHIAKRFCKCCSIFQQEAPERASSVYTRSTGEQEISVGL
T7 sequence (P61073 whole entry): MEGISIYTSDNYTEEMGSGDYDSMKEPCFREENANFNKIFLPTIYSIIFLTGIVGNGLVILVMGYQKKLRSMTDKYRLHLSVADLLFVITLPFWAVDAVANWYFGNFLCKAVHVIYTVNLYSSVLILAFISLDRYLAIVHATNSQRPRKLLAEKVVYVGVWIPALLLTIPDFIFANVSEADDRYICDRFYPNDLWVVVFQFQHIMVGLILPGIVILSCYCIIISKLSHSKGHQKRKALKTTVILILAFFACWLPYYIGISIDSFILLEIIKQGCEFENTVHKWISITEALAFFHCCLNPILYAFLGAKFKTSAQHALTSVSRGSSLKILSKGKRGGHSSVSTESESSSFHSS

Structure (SMILES) | activation (CXCR5; [1]) | activation (CXCR5; [2]) | activation (CXCR5; [3]) | activation (CXCR2; [4]) | activation (CXCR2; [5]) | activation (CXCR2; [6]) | activation (ACKR3; replicate 1) | activation (ACKR3; replicate 2) | activation (ACKR3; replicate 3) | activation (CCR5; [7]) | activation (CCR5; [8]) | activation (CCR5; [9]) | activation (CXCR6; [10]) | activation (CXCR6; [11]) | activation (CXCR6; [12]) | activation (CXCR3A; [13]) | activation (CXCR3A; [14]) | activation (CXCR3A; [15]) | activation (CCR9; [16]) | activation (CCR9; [17]) | other results
CC(C)C[C@H](NC(=O)[C@H](Cc1ccccc1)NC(=O)CNC(=O)CNC(=O)[C@@H](N)Cc1ccc(O)cc1)C(=O)N[C@@H](CCCN=C(N)N)C(=O)N[C@@H](CCCN=C(N)N)C(=O)N[C@@H](CCC(N)=O)C(=O)N[C@@H](Cc1ccccc1)C(=O)N[C@@H](CCCCN)C(=O)N[C@H](C(=O)N[C@H](C(=O)N[C@H](C(=O)O)[C@@H](C)O)C(C)C)C(C)C [Dynorphin B] | -2.46% | -6.11% | 11.3% | 0.415% | -10% | 5.58% | 87% | 63.5% | 94.7% | 0.97% | 0.0962% | 1.82% | -1.05% | -1.2% | 0.0809% | -2.8% | -4.87% | -1.97% | -1.23% | -1.3% | activation (CCR9; [18]): 15.7%; activation (CXCR4; replicate 1): -12.2%; activation (CXCR4; replicate 2): 7.15%; activation (CXCR4; replicate 3): -6.95%; activation (ACKR4; replicate 1): -5.6%; activation (ACKR4; replicate 2): -0.628%; activation (ACKR4; replicate 3): 0.166%
CC[C@H](C)[C@H](NC(=O)[C@H](CCCNC(=N)N)NC(=O)[C@H](CCCNC(=N)N)NC(=O)[C@H](CC(C)C)NC(=O)[C@H](Cc1ccccc1)NC(=O)CNC(=O)CNC(=O)[C@@H](N)Cc1ccc(O)cc1)C(=O)N[C@@H](CCCNC(=N)N)C(=O)N1CCC[C@H]1C(=O)N[C@@H](CCCCN)C(=O)N[C@@H](CC(C)C)C(=O)N[C@@H](CCCCN)C(=O)N[C@@H](Cc1c[nH]c2ccccc12)C(=O)N[C@@H](CC(=O)O)C(=O)N[C@@H](CC(N)=O)C(=O)N[C@@H](CCC(N)=O)C(=O)O [Dynorphin A] | -1.81% | -4.52% | 9.35% | -9.63% | -9.59% | 0.355% | 127% | 60.7% | 99% | 2.19% | -1.33% | 2.35% | -0.0479% | -0.578% | 0.283% | -4.75% | -3.36% | 7.92% | 0.116% | -0.279% | activation (CCR9; [18]): 10.9%; activation (CXCR4; replicate 1): -6.67%; activation (CXCR4; replicate 2): -56.8%; activation (CXCR4; replicate 3): 36.5%; activation (ACKR4; replicate 1): -2.58%; activation (ACKR4; replicate 2): -4.52%; activation (ACKR4; replicate 3): 0.188%
C[C@H](NC(=O)CNC(=O)[C@@H](NC(=O)[C@H](Cc1ccccc1)NC(=O)CNC(=O)CNC(=O)[C@@H](N)Cc1ccccc1)[C@@H](C)O)C(=O)N[C@@H](CCCNC(=N)N)C(=O)N[C@@H](CCCCN)C(=O)N[C@@H](CO)C(=O)N[C@@H](C)C(=O)N[C@@H](CCCNC(=N)N)C(=O)N[C@@H](CCCCN)C(N)=O [Nociceptin 1-13] | -3.96% | -2.66% | -1.89% | -8.55% | -9.95% | -4.53% | 19.7% | 20.3% | 51.3% | -0.291% | -0.592% | 0.907% | -0.349% | -0.882% | 2.41% | -0.431% | -4.46% | -5.38% | -3.6% | -1.89% | activation (CCR9; [18]): 2.5%; activation (CXCR4; replicate 1): 20.2%; activation (CXCR4; replicate 2): -3.76%; activation (CXCR4; replicate 3): 28.2%; activation (ACKR4; replicate 1): -3.36%; activation (ACKR4; replicate 2): -5.01%; activation (ACKR4; replicate 3): 1.05%
CSCC[C@H](NC(=O)[C@H](Cc1ccccc1)NC(=O)CNC(=O)CNC(=O)[C@@H](N)Cc1ccc(O)cc1)C(=O)N[C@@H](CCCNC(=N)N)C(=O)N[C@@H](CCCNC(=N)N)C(=O)N[C@H](C(N)=O)C(C)C [Adrenorphin] | -2.55% | -4.15% | 2.83% | 3.42% | -6.62% | -0.394% | 111% | 55.3% | 84.5% | 0.166% | -0.467% | -0.49% | 0.866% | -0.941% | -0.716% | -0.787% | 0.214% | 3.64% | 0.345% | -0.997% | activation (CCR9; [18]): 2.74%; activation (CXCR4; replicate 1): -0.233%; activation (CXCR4; replicate 2): 14%; activation (CXCR4; replicate 3): 3.91%; activation (ACKR4; replicate 1): -1.94%; activation (ACKR4; replicate 2): -1.88%; activation (ACKR4; replicate 3): -0.895%
